Test results as given in PubChem BioAssay AID248 (DTP/NCI, 2004).
Values joined by “and” are separate entries in the source; they are usually repeats but may differ in a detail not shown here. Equal entries are not always repeated. Toxic doses and inconclusive results are not listed. Rule as the data show it: active = T/C of 150% or more; inactive = T/C below 125%.

Tested on: L1210 leukemia ip in BDF1 mice, survival T/C
Assay: NCI In Vivo Anticancer Drug Screen. Data for tumor model L1210 Leukemia (intraperitoneal) in B6D2F1 (BDF1) mice
Details: endpoint: mean survival time, higher = longer survival
Method in brief: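 In this screen, tumor-bearing mice given compound are compared to those given vehicle, and their survival values are reported as a treated-to-control quotient.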

[1] = dose: 50.0 mg/kg/injection, schedule: Q01DX009 (ip), vehicle: saline with Tween-80
[2] = dose: 100.0 mg/kg/injection, schedule: Q04DX003 (ip), vehicle: Klucel (hydroxypropylcellulose) (HPC)
[3] = dose: 200.0 mg/kg/injection, schedule: Q04DX003 (ip), vehicle: Klucel (hydroxypropylcellulose) (HPC)
[4] = dose: 100.0 mg/kg/injection, schedule: Q04DX003 (ip), vehicle: saline with Tween-80
[5] = dose: 200.0 mg/kg/injection, schedule: Q04DX003 (ip), vehicle: saline with Tween-80
[6] = dose: 400.0 mg/kg/injection, schedule: Q04DX003 (ip), vehicle: saline with Tween-80
[7] = dose: 100.0 mg/kg/injection, schedule: Q01DX001 (ip), vehicle: Klucel (hydroxypropylcellulose) (HPC)
[8] = dose: 200.0 mg/kg/injection, schedule: Q01DX001 (ip), vehicle: Klucel (hydroxypropylcellulose) (HPC)
[9] = dose: 400.0 mg/kg/injection, schedule: Q01DX001 (ip), vehicle: Klucel (hydroxypropylcellulose) (HPC)
[10] = dose: 100.0 mg/kg/injection, schedule: Q01DX001 (ip), vehicle: other
[11] = dose: 200.0 mg/kg/injection, schedule: Q01DX001 (ip), vehicle: other
[12] = dose: 400.0 mg/kg/injection, schedule: Q01DX001 (ip), vehicle: other
[13] = dose: 100.0 mg/kg/injection, schedule: Q01DX009 (ip), vehicle: saline with Tween-80
[14] = dose: 200.0 mg/kg/injection, schedule: Q01DX009 (ip), vehicle: saline with Tween-80
[15] = dose: 100.0 mg/kg/injection, schedule: Q04DX002 (ip), vehicle: Klucel (hydroxypropylcellulose) (HPC)
[16] = dose: 400.0 mg/kg/injection, schedule: Q04DX002 (ip), vehicle: Klucel (hydroxypropylcellulose) (HPC)
[17] = dose: 25.0 mg/kg/injection, schedule: Q04DX002 (ip), vehicle: Klucel (hydroxypropylcellulose) (HPC)
[18] = dose: 50.0 mg/kg/injection, schedule: Q01DX009 (ip), vehicle: Klucel (hydroxypropylcellulose) (HPC)
[19] = dose: 50.0 mg/kg/injection, schedule: Q04DX002 (ip), vehicle: Klucel (hydroxypropylcellulose) (HPC)
[20] = dose: 200.0 mg/kg/injection, schedule: Q04DX002 (ip), vehicle: Klucel (hydroxypropylcellulose) (HPC)
[21] = dose: 50.0 mg/kg/injection, schedule: Q01DX001 (ip), vehicle: carboxymethylcellulose (CMC)
[22] = dose: 100.0 mg/kg/injection, schedule: Q01DX001 (ip), vehicle: carboxymethylcellulose (CMC)
[23] = dose: 200.0 mg/kg/injection, schedule: Q01DX001 (ip), vehicle: carboxymethylcellulose (CMC)
[24] = dose: 400.0 mg/kg/injection, schedule: Q01DX001 (ip), vehicle: carboxymethylcellulose (CMC)

Measured: T/C

CC(O)CCc1ccccc1O (stereo not drawn)
inactive: dose: 100.0 mg/kg/injection, schedule: Q04DX002 (ip), vehicle: saline with Tween-80 98 % of control | dose: 200.0 mg/kg/injection, schedule: Q04DX002 (ip), vehicle: saline with Tween-80 91 % of control | dose: 400.0 mg/kg/injection, schedule: Q04DX002 (ip), vehicle: saline with Tween-80 98 % of control

NS(=O)(=O)O
inactive: dose: 12.5 mg/kg/injection, schedule: Q01DX009 (ip), vehicle: saline with Tween-80 103 % of control | dose: 25.0 mg/kg/injection, schedule: Q01DX009 (ip), vehicle: saline with Tween-80 95 % of control | [1] 89 % of control

Cc1ccc(S(=O)(=O)COS(=O)(=O)C(F)(F)F)cc1
inactive: [2] 93 % of control | [3] 93 % of control

CC(=O)Nc1cc([N+](=O)[O-])c(C)c([N+](=O)[O-])c1
inactive: [4] 104 % of control | [5] 97 % of control | [6] 97 % of control

COc1ccc(Cl)cc1-c1c(C(=O)O)cccc1[N+](=O)[O-]
inactive: dose: 100.0 mg/kg/injection, schedule: Q01DX001 (ip), vehicle: gum acacia 108 % of control | dose: 100.0 mg/kg/injection, schedule: Q04DX003 (ip), vehicle: gum acacia 102 % of control | dose: 200.0 mg/kg/injection, schedule: Q01DX001 (ip), vehicle: gum acacia 102 % of control | dose: 200.0 mg/kg/injection, schedule: Q04DX003 (ip), vehicle: gum acacia 102 % of control | dose: 400.0 mg/kg/injection, schedule: Q01DX001 (ip), vehicle: gum acacia 102 % of control | dose: 400.0 mg/kg/injection, schedule: Q04DX003 (ip), vehicle: gum acacia 90 % of control

Cc1ccc(NCN2C(=O)NC(c3ccccc3)(c3ccccc3)C2=O)cc1
inactive: [7] 93 % of control | [8] 103 % of control | [9] 92 % of control

CC1(C)N=C(N)N=C(N)N1c1ccc(CC(CCc2ccccc2)C(=O)Nc2ccc(S(=O)(=O)F)cc2)cc1 (stereo not drawn)
inactive: [7] 90 % of control | [8] 97 % of control | [9] 90 % of control

CCCCCCCCCCCCCCCC[N+]1(C)CCC[N+](C)(CCCCCCCCCCCCCCCC)CC1 (stereo not drawn)
inactive: [10] 111 % of control and 90 % of control | dose: 100.0 mg/kg/injection, schedule: Q04DX002 (ip), vehicle: other 94 % of control and 106 % of control | [11] 96 % of control and 90 % of control | dose: 200.0 mg/kg/injection, schedule: Q04DX002 (ip), vehicle: other 97 % of control and 110 % of control | [12] 96 % of control and 90 % of control | dose: 400.0 mg/kg/injection, schedule: Q04DX002 (ip), vehicle: other 98 % of control and 106 % of control

COc1ccc2c(c1)CCC1C2=CCC2C(=O)CCC(=O)C21 (stereo not drawn)
inactive: dose: 50.0 mg/kg/injection, schedule: Q01DX001 (ip), vehicle: Klucel (hydroxypropylcellulose) (HPC) 101 % of control | [7] 101 % of control | [8] 93 % of control

COC1OC(CN(CCCl)C(C)=O)C2OC(C)(C)OC12 (stereo not drawn)
inactive: dose: 50.0 mg/kg/injection, schedule: Q04DX003 (ip), vehicle: saline 96 % of control | dose: 100.0 mg/kg/injection, schedule: Q04DX003 (ip), vehicle: saline 94 % of control | dose: 200.0 mg/kg/injection, schedule: Q04DX003 (ip), vehicle: saline 92 % of control | dose: 400.0 mg/kg/injection, schedule: Q04DX003 (ip), vehicle: saline 100 % of control

O=P(Cc1ccccc1)(C(O)c1ccccc1)C(O)c1ccccc1 (stereo not drawn)
inactive: [2] 87 % of control | [3] 91 % of control

CCCCCCCCCCCCOC(N)=O
inactive: [1] 103 % of control | [13] 101 % of control | [4] 103 % of control | [14] 101 % of control | [5] 108 % of control | [6] 88 % of control

O=S(=O)(O)C(O)CC(c1ccccc1)S(=O)(=O)O (stereo not drawn)
inactive: [15] 106 % of control | [16] 98 % of control

O=C(CCCl)NC1CC1c1ccccc1 (stereo not drawn)
inactive: [13] 90 % of control | [4] 97 % of control | [14] 95 % of control | [5] 97 % of control | dose: 400.0 mg/kg/injection, schedule: Q01DX009 (ip), vehicle: saline with Tween-80 94 % of control | [6] 95 % of control

O=C1Cc2ccccc2C(=O)N1
inactive: dose: 25.0 mg/kg/injection, schedule: Q01DX Z (ip), vehicle: carboxymethylcellulose (CMC) 91 % of control | dose: 40.0 mg/kg/injection, schedule: Q01DX Z (ip), vehicle: carboxymethylcellulose (CMC) 104 % of control | dose: 60.0 mg/kg/injection, schedule: Q01DX Z (ip), vehicle: carboxymethylcellulose (CMC) 112 % of control | dose: 90.0 mg/kg/injection, schedule: Q01DX Z (ip), vehicle: carboxymethylcellulose (CMC) 100 % of control | dose: 100.0 mg/kg/injection, schedule: Q04DX003 (ip), vehicle: saline sonified 100 % of control | dose: 200.0 mg/kg/injection, schedule: Q04DX003 (ip), vehicle: saline sonified 99 % of control | dose: 400.0 mg/kg/injection, schedule: Q04DX003 (ip), vehicle: saline sonified 100 % of control

CCOC(=O)/C=C(\CC(=O)OCC)Nc1ccc(C(=O)c2ccccc2)cc1
inactive: dose: 200.0 mg/kg/injection, schedule: Q01DX001 (ip), vehicle: saline 89 % of control

C[C@]12CC[C@@H]3c4cc([N+]#N)c([O-])cc4CC[C@H]3[C@@H]1CCC2=O
inactive: dose: 25.0 mg/kg/injection, schedule: Q01DX009 (ip), vehicle: Klucel (hydroxypropylcellulose) (HPC) 103 % of control | [17] 96 % of control | [18] 92 % of control | [19] 122 % of control | [15] 100 % of control and 101 % of control

CC(=O)OC(C(O)C=O)C(O)C(O)CO (stereo not drawn) (tested in a mixture with another compound)
inactive: [15] 107 % of control | [20] 88 % of control

Cc1c2cnccc2c(C)c2c1c1ccccc1n2CCCCCC#N
inactive: [2] 100 % of control | [3] 97 % of control | dose: 400.0 mg/kg/injection, schedule: Q04DX003 (ip), vehicle: Klucel (hydroxypropylcellulose) (HPC) 100 % of control

C=Cc1c[nH]c(=O)[nH]c1=O
inactive: [17] 94 % of control | [19] 94 % of control | [15] 102 % of control

COC(=O)C1OC(n2cnc3c(=S)nc[nH]c32)C(OC(C)=O)C(OC(C)=O)C1OC(C)=O (stereo not drawn)
inactive: [21] 103 % of control | [22] 100 % of control | [23] 100 % of control | [24] 94 % of control

COc1ccc2c(c1)CCC1C2CCC2(C)C(=O)C(SC3=NC=NC4=NC=NC43)CC12 (stereo not drawn)
inactive: dose: 100.0 mg/kg/injection, schedule: Q01DX001 (sc), vehicle: steriod suspending solution 97 % of control | dose: 200.0 mg/kg/injection, schedule: Q01DX001 (sc), vehicle: steriod suspending solution 96 % of control | dose: 400.0 mg/kg/injection, schedule: Q01DX001 (sc), vehicle: steriod suspending solution 111 % of control

NC(=O)NC(=O)C(Cl)c1ccccc1 (stereo not drawn)
inactive: [21] 103 % of control | [22] 97 % of control | [23] 103 % of control | [24] 101 % of control

CNc1ccccc1C(=O)N/N=C/c1cccc([N+](=O)[O-])c1
inactive: [15] 93 % of control | [20] 96 % of control | [16] 86 % of control

CCCCCC#CC(O)(C(=O)OC)c1ccccc1 (stereo not drawn)
inactive: [10] 107 % of control | [11] 107 % of control | [12] 100 % of control

Nc1c(Br)cc(Br)c(C(=O)O)c1Br
inactive: [18] 103 % of control | dose: 100.0 mg/kg/injection, schedule: Q01DX009 (ip), vehicle: Klucel (hydroxypropylcellulose) (HPC) 101 % of control | dose: 200.0 mg/kg/injection, schedule: Q01DX009 (ip), vehicle: Klucel (hydroxypropylcellulose) (HPC) 95 % of control
